≈ marks a conversion by molar mass, not a printed value. Counter-ions that a name gives are not always drawn.
Assays:
Experiment in all cases: Agar dilution test, minimum inhibitory concentration
Format in all cases: cell-based
Klebsiella 63 = details: test strain Klebsiella 63; Isosensitest-Agar (Oxoid), inoculum ca. 10^4 germs per inoculation point; read-out: Minimale Hemmkonzentrationen
Proteus mir. 8175 = details: test strain Proteus mir. 8175; Isosensitest-Agar (Oxoid), inoculum ca. 10^4 germs per inoculation point; read-out: Minimale Hemmkonzentrationen
E.coli A261 = details: Escherichia coli; test strain E.coli A261; Isosensitest-Agar (Oxoid), inoculum ca. 10^4 germs per inoculation point; read-out: Minimale Hemmkonzentrationen
Klebsiella 8085 = details: test strain Klebsiella 8085; Isosensitest-Agar (Oxoid), inoculum ca. 10^4 germs per inoculation point; read-out: Minimale Hemmkonzentrationen
E.coli Neumann = details: Escherichia coli; test strain E.coli Neumann; Isosensitest-Agar (Oxoid), inoculum ca. 10^4 germs per inoculation point; read-out: Minimale Hemmkonzentrationen
Pseudomonas Ellsworth = details: test strain Pseudomonas Ellsworth; Isosensitest-Agar (Oxoid), inoculum ca. 10^4 germs per inoculation point; read-out: Minimale Hemmkonzentrationen
Morg. morg. 11006 = details: test strain Morg. morg. 11006; Isosensitest-Agar (Oxoid), inoculum ca. 10^4 germs per inoculation point; read-out: Minimale Hemmkonzentrationen
Enteroc. 27101 = details: test strain Enteroc. 27101; Isosensitest-Agar (Oxoid), inoculum ca. 10^4 germs per inoculation point; read-out: Minimale Hemmkonzentrationen
Pseudomonas Walter = details: test strain Pseudomonas Walter; Isosensitest-Agar (Oxoid), inoculum ca. 10^4 germs per inoculation point; read-out: Minimale Hemmkonzentrationen
Staph. 133 = details: test strain Staph. 133; Isosensitest-Agar (Oxoid), inoculum ca. 10^4 germs per inoculation point; read-out: Minimale Hemmkonzentrationen
Serratia 16040 = details: test strain Serratia 16040; Isosensitest-Agar (Oxoid), inoculum ca. 10^4 germs per inoculation point; read-out: Minimale Hemmkonzentrationen
Enteroc. 9790 = details: test strain Enteroc. 9790; Isosensitest-Agar (Oxoid), inoculum ca. 10^4 germs per inoculation point; read-out: Minimale Hemmkonzentrationen
Proteus mir. 8223 = details: test strain Proteus mir. 8223; Isosensitest-Agar (Oxoid), inoculum ca. 10^4 germs per inoculation point; read-out: Minimale Hemmkonzentrationen
Providencia 12052 = details: test strain Providencia 12052; Isosensitest-Agar (Oxoid), inoculum ca. 10^4 germs per inoculation point; read-out: Minimale Hemmkonzentrationen
E.coli 455/7 = details: Escherichia coli; test strain E.coli 455/7; Isosensitest-Agar (Oxoid), inoculum ca. 10^4 germs per inoculation point; read-out: Minimale Hemmkonzentrationen
Providencia 12012 = details: test strain Providencia 12012; Isosensitest-Agar (Oxoid), inoculum ca. 10^4 germs per inoculation point; read-out: Minimale Hemmkonzentrationen
Morg. morg. 932 = details: test strain Morg. morg. 932; Isosensitest-Agar (Oxoid), inoculum ca. 10^4 germs per inoculation point; read-out: Minimale Hemmkonzentrationen
Proteus vulg. 1017 = details: test strain Proteus vulg. 1017; Isosensitest-Agar (Oxoid), inoculum ca. 10^4 germs per inoculation point; read-out: Minimale Hemmkonzentrationen
Staph. FK 422 = details: test strain Staph. FK 422; Isosensitest-Agar (Oxoid), inoculum ca. 10^4 germs per inoculation point; read-out: Minimale Hemmkonzentrationen
Staph. 1756 = details: test strain Staph. 1756; Isosensitest-Agar (Oxoid), inoculum ca. 10^4 germs per inoculation point; read-out: Minimale Hemmkonzentrationen

Row | MIC (Klebsiella 63) | MIC (Proteus mir. 8175) | MIC (E.coli A261) | MIC (Klebsiella 8085) | MIC (E.coli Neumann) | MIC (Pseudomonas Ellsworth) | MIC (Morg. morg. 11006) | MIC (Enteroc. 27101) | MIC (Pseudomonas Walter) | MIC (Staph. 133) | MIC (Serratia 16040) | MIC (Enteroc. 9790) | MIC (Proteus mir. 8223) | MIC (Providencia 12052) | MIC (E.coli 455/7) | MIC (Providencia 12012) | MIC (Morg. morg. 932) | MIC (Proteus vulg. 1017) | MIC (Staph. FK 422) | MIC (Staph. 1756) | Structure (SMILES)
1 | 0.06 µg/mL (≈ 0.173 µM) | 0.06 µg/mL (≈ 0.173 µM) | 2 µg/mL (≈ 5.78 µM) | 0.03 µg/mL (≈ 0.0866 µM) | 0.03 µg/mL (≈ 0.0866 µM) | 0.25 µg/mL (≈ 0.722 µM) | 0.06 µg/mL (≈ 0.173 µM) | 0.25 µg/mL (≈ 0.722 µM) | 2 µg/mL (≈ 5.78 µM) | 0.03 µg/mL (≈ 0.0866 µM) | 8 µg/mL (≈ 23.1 µM) | 0.25 µg/mL (≈ 0.722 µM) | 2 µg/mL (≈ 5.78 µM) | 4 µg/mL (≈ 11.6 µM) | 16 µg/mL (≈ 46.2 µM) | – | – | – | – | – | Nc1c(F)c(-n2ccnc2)c(F)c2c1c(=O)c(C(=O)O)cn2C1CC1 [Beispiel 30, 5-Amino-1-cyclopropyl-6,8-difluor-1,4-dihydro-7-(1-imidazolyl)-4-oxo-3-chinolincarbonsäure-methansulfonat]
2 | – | 0.25 µg/mL (≈ 0.716 µM) | 2 µg/mL (≈ 5.73 µM) | – | – | – | – | 0.03 µg/mL (≈ 0.0859 µM) | 1 µg/mL (≈ 2.86 µM) | – | 16 µg/mL (≈ 45.8 µM) | – | 0.25 µg/mL (≈ 0.716 µM) | 8 µg/mL (≈ 22.9 µM) | 16 µg/mL (≈ 45.8 µM) | 0.06 µg/mL (≈ 0.172 µM) | 0.06 µg/mL (≈ 0.172 µM) | 0.06 µg/mL (≈ 0.172 µM) | – | – | Nc1c(F)c(N2CCCC2)c(F)c2c1c(=O)c(C(=O)O)cn2C1CC1 [Beispiel 27, 5-Amino-1-cyclopropyl-6,8-difluor-1,4-dihydro-4-oxo-7-(1-pyrrolidinyl)-3-chinolincarbonsäure]
3 | – | 0.06 µg/mL (≈ 0.136 µM) | 0.25 µg/mL (≈ 0.568 µM) | 0.03 µg/mL (≈ 0.0681 µM) | – | – | 0.03 µg/mL (≈ 0.0681 µM) | 0.03 µg/mL (≈ 0.0681 µM) | 1 µg/mL (≈ 2.27 µM) | – | 2 µg/mL (≈ 4.54 µM) | 0.06 µg/mL (≈ 0.136 µM) | – | 1 µg/mL (≈ 2.27 µM) | 1 µg/mL (≈ 2.27 µM) | – | – | – | – | – | Nc1c(F)c(N2CCNC(c3ccccc3)C2)c(F)c2c1c(=O)c(C(=O)O)cn2C1CC1 (stereo not shown) [Beispiel 23, 5-Amino-1-cyclopropyl-6,8-difluor-1,4-dihydro-4-oxo-7-(3-phenyl-1-piperazinyl)-3-chinolincarbonsäure]
4 | – | – | 0.25 µg/mL (≈ 0.684 µM) | – | – | 0.03 µg/mL (≈ 0.0821 µM) | – | 0.03 µg/mL (≈ 0.0821 µM) | 0.25 µg/mL (≈ 0.684 µM) | – | 1 µg/mL (≈ 2.74 µM) | 0.03 µg/mL (≈ 0.0821 µM) | 0.06 µg/mL (≈ 0.164 µM) | 1 µg/mL (≈ 2.74 µM) | 2 µg/mL (≈ 5.47 µM) | – | – | – | – | – | Nc1c(F)c(N2CCC(O)C2)c(F)c2c1c(=O)c(C(=O)O)cn2C1CC1 (stereo not shown) [Beispiel 28, 5-Amino-1-cyclopropyl-6,8-difluor-1,4-dihydro-7-(3-hydroxy-1-pyrrolidinyl)-4-oxo-3-chinolincarbonsäure]
5 | 0.06 µg/mL (≈ 0.147 µM) | – | 0.5 µg/mL (≈ 1.22 µM) | 0.06 µg/mL (≈ 0.147 µM) | – | – | – | 0.25 µg/mL (≈ 0.612 µM) | 1 µg/mL (≈ 2.45 µM) | 0.06 µg/mL (≈ 0.147 µM) | 4 µg/mL (≈ 9.79 µM) | 0.25 µg/mL (≈ 0.612 µM) | 0.5 µg/mL (≈ 1.22 µM) | 2 µg/mL (≈ 4.9 µM) | 2 µg/mL (≈ 4.9 µM) | 0.06 µg/mL (≈ 0.147 µM) | 0.03 µg/mL (≈ 0.0735 µM) | – | 0.06 µg/mL (≈ 0.147 µM) | 0.06 µg/mL (≈ 0.147 µM) | Nc1c(F)c(N2CCN(CCO)CC2)c(F)c2c1c(=O)c(C(=O)O)cn2C1CC1 [Beispiel 21]
6 | – | 0.06 µg/mL | 0.06 µg/mL | 0.03 µg/mL | – | 0.03 µg/mL | 0.03 µg/mL | 0.03 µg/mL | 1 µg/mL | 0.03 µg/mL | 4 µg/mL | 0.03 µg/mL | 0.5 µg/mL | 1 µg/mL | 1 µg/mL | 0.03 µg/mL | – | – | 0.03 µg/mL | 0.03 µg/mL | CCNCC1CCN(c2c(F)c(N)c3c(=O)c(C(=O)O)cn(C4CC4)c3c2F)C1 (stereo not shown) [Beispiel 32, 5-Amino-1-cyclopropyl-7-(3-ethylaminomethyl-1-pyrrolidinyl)-6.8-difluor-1,4-dihydro-4-oxo-3-chinolincarbonsäure-hydrochlorid-hydrat]
